In brackets after ≈: the same amount, converted by molar mass. Counter-ions that a name gives are not always drawn. Like-named read-outs stand apart in the source and are kept apart here.

Data set [1] in a line: Pharmacokinetics study, rat IV and PO. The format is in vivo.
A short description of data set [2]: Weight loss before melting (TGA) of solid forms. It is filed as physicochemical.
A short description of data set [3]: Solubility 24 hrs in FaSSIF, FeSSIF, SGF, H2O. The conditions noted are these: thermodynamic from solid. The format is physicochemical. The text has this:
In Table 3, “FaSSIF” stands for “Fasted state simulated intestinal fluid”; “FeSSIF” stands for “Fed state simulated intestinal fluid”; “SGF” stands for “Simulated gastric fluid”.

A short description of data set [4]: Stability of solid forms under stress conditions. It is filed as physicochemical.
Setting [5] is: 20 mg/kg, listed as ABT-101 S0*.
Where [6] appears, read: FeSSIF (fed state simulated intestinal fluid), fessif.
Setting [7] is: SGF (simulated gastric fluid), simulated gastric fluid, SGF.

With `CN(C)C/C=C/C(=O)Nc1cccc(-c2c(-c3ccccc3)oc3ncnc(N[C@H](CO)c4ccccc4)c23)c1` [ABT-101 S0, (S, E)-4-(dimethylamino)-N-(3-(4-(2-hydroxy-1-phenylethylamino)-6-phenylfuro[2,3-d]pyrimidin-5-yl)phenyl)but-2-enamide], the “increased Cmax, AUC and F (%) compared to amorphous form (ABT-101 S0)” value in data set [1] is given as 1.9˜3 times. Moreover, in data set [1] (20 mg/kg), the Cmax (as a rule, the maximum level reached in the sampled fluid or tissue) came to 136 ng/mL and the “F (%)” value is given as 19%. Also, in data set [1] (setting [5]), the Cmax came to 508 ng/mL; the “F (%)” value is given as 42%; the Tmax – broadly, the time at which the peak concentration occurs – was determined as 3.3 h. The half-life (as a rule, the time needed for the level to fall by half in the phase considered) in data set [1] (rat, in vivo, po, 20 mg/kg) was 4.7 h. Moreover, the time to peak (Tmax) in data set [1] (rat, in vivo, po, 20 mg/kg, read-out: Tmax) turned out to be 4 h.

`CN(C)C/C=C/C(=O)Nc1cccc(-c2c(-c3ccccc3)oc3ncnc(N[C@H](CO)c4ccccc4)c23)c1` [Free Base, (S, E)-4-(dimethylamino)-N-(3-(4-(2-hydroxy-1-phenylethylamino)-6-phenylfuro[2,3-d]pyrimidin-5-yl)phenyl)but-2-enamide]: the “Weight loss before melting (%) (TGA)” value in data set [2] worked out at 0.6 wt %. For the same compound, the solubility (as a rule, the dissolved amount per volume that the medium holds) at 24 h in data set [3] (FaSSIF (fasted state simulated intestinal fluid), fassif) was 320 µg/mL (≈ 600 µM); in data set [3] (setting [6]), 410 µg/mL (≈ 768 µM); in data set [3] (setting [7]) it was 9100 µg/mL (≈ 17100 µM); in data set [3] (water, H2O) it was 20 µg/mL (≈ 37.5 µM). Moreover, the Stability result is given as “Stable” in data set [4] (25° C./60% RH, 1 week); “Stable” in data set [4] (40° C./75% RH, 1 week); “Stable” in data set [4] (80° C., 24 hrs).

Turning to `CN(C)C/C=C/C(=O)Nc1cccc(-c2c(-c3ccccc3)oc3ncnc(NC(CO)c4ccccc4)c23)c1` (stereo not drawn) [Glycollate], in data set [2], the “Weight loss before melting (%) (TGA)” value was 0.7 wt %. The solubility at 24 h in data set [3] (setting [6]) is > 11300 µg/mL; in data set [3] (setting [7]), > 10900 µg/mL. For the same compound, the Stability result was “Stable” in data set [4] (25° C./60% RH, 1 week); “Unstable” in data set [4] (40° C./75% RH, 1 week); “Stable” in data set [4] (80° C., 24 hrs).

For the compound `CN(C)C/C=C/C(=O)Nc1cccc(-c2c(-c3ccccc3)oc3ncnc(NC(CO)c4ccccc4)c23)c1` (stereo not drawn) [Hydrochloride], the “Weight loss before melting (%) (TGA)” value in data set [2] came to 3.6 wt %. Further, the Stability result was “Stable” in data set [4] (25° C./60% RH, 1 week); “Stable” in data set [4] (40° C./75% RH, 1 week); “Stable” in data set [4] (80° C., 24 hrs).

Consider `CN(C)C/C=C/C(=O)Nc1cccc(-c2c(-c3ccccc3)oc3ncnc(NC(CO)c4ccccc4)c23)c1` (stereo not drawn) [Succinate], for which the “Weight loss before melting (%) (TGA)” value in data set [2] turned out to be 0.5 wt %. The Stability result in data set [4] (25° C./60% RH, 1 week) was “Stable”; in data set [4] (40° C./75% RH, 1 week), “Unstable”; in data set [4] (80° C., 24 hrs), “Stable”.
